Reference: ChEMBL document CHEMBL1157539, “Thousands of chemical starting points for antimalarial lead identification” (Nature, 2010)

These molecules were tested on Plasmodium falciparum (assay: GSK_TCMDC: Inhibition of Plasmodium falciparum 3D7 in whole erythrocytes, using parasite LDH activity as an index of growth.). Details: Plasmodium falciparum, 3D7.
Assay type: functional, organism-based

Compound | XC50
COc1cccc(C(=O)NC(c2ccccc2OC)c2cc(Cl)c3cccnc3c2O)c1 (stereo unspecified) | 1190 nM
COc1ccccc1CNC(=O)CCn1c(=O)[nH]c2ccsc2c1=O | 1040 nM
O=C(Nc1cccc(F)c1)NC1CCN(c2ccnc3cc(Cl)ccc23)CC1 | 609 nM
C[C@@H]1C[C@@H]([C@H](O)CC2CC(=O)NC(=O)C2)C(=O)[C@@H](C)C1 [CYCLOHEXIMIDE] | 527 nM
N#Cc1ccc2c(c1)CCN(CCC1CCC(NC(=O)c3cc4cccc([N+](=O)[O-])c4[nH]3)CC1)C2 (stereo unspecified) | 684 nM
COc1cc(NC(=O)/C=C/c2cc(F)cc(F)c2F)cc(OCCN2CCC3(CC2)OCCO3)c1 | 269 nM
OCCN1CCN(c2ccc(Nc3ccnc4cc5ccccc5cc34)cc2)CC1 | 41 nM
CCN(C1CCCCC1)S(=O)(=O)c1ccc(OC)c(N2CCN(C(=O)C(Cl)(Cl)Cl)CC2)c1 | 635 nM
CC(=O)Nc1ccc(CN(Cc2ccc(F)cc2)Cc2ccc3c(c2)OCO3)cc1 | 943 nM
O=C(Nc1ccc(Cl)cc1Cl)N[C@H]1CCN(CCCCCNC(=O)C2CC2c2ccc(Cl)c(Cl)c2)C1 (stereo partly specified) | 989 nM
O=C(Nc1ccc2c(c1)CCC2)c1ccc(CN2CCCN(Cc3cccc(O)c3)CC2)cc1 | 894 nM
CCCN(CCC)CCCN(CCCN(CCC)CCC)c1cc(C)nc(Nc2ccc(Cl)cc2)n1 | 168 nM
CC1CCCCC1N(C)C1CCN(CCCNC(=O)C=Cc2ccc(Cl)cc2Cl)CC1 (stereo unspecified) | 650 nM
C=CCc1cccc(OC)c1OCCCON1C(=N)N=C(N)NC1(C)C | 3.2 nM
COC(=O)/C=C/C(=O)N[C@@H]1CC[C@@]2(O)[C@H]3Cc4ccc(O)c5c4[C@@]2(CCN3CC2CC2)[C@H]1O5 | 639 nM
O=C(NC1CC1)c1ccc(N2CCC(Oc3ccc(F)cc3)CC2)nc1 | 1090 nM
CCn1ccc2c(N3CCCC3=O)cc(C(=O)N[C@@H](Cc3ccccc3)[C@H](O)CNCc3cccc(OC)c3)cc21 | 588 nM
O=C(Nc1ccc(CC(=O)N2CCc3cc(Cl)c(N4CCN(C/C=C/c5ccccc5)CC4)cc32)cc1)Nc1cccc([N+](=O)[O-])c1 | 761 nM
O=C(/C=C/c1ccc(Cl)c(Cl)c1)NCCCCN1CCCN(C(=O)Nc2ccc(C(F)(F)F)cc2)CC1 | 847 nM
CC1(C)N=C(N)N=C(N)N1OCCCCON1C(N)=NC(N)=NC1(C)C | 66 nM
CCCC(C)N(Cc1ccc(C(C)(C)C)cc1)C(=O)c1cccc(OC)c1 (stereo unspecified) | 336 nM
CC(C)CCn1c(Sc2ccc([N+](=O)[O-])cc2C(F)(F)F)nnc1-c1ccccc1Cl | 919 nM
COc1ccc2nccc(N3CCN(CCNCc4ccc5c(n4)NC(=O)CS5)CC3)c2n1 | 843 nM
CN(c1cc(NC(=O)c2ccc(F)cc2)ccn1)C1CCN(Cc2cccc(O)c2)CC1 | 922 nM

Compound | XC50
COc1nc2c(CCN3CCC(NCc4ccc5c(c4)NCCO5)CC3)c(Cl)cnc2cc1F | 179 nM
Cc1cc(N[C@@H](Cc2ccccc2)C(=O)Nc2ccccc2)nc(NCCc2ccc(F)cc2)n1 | 860 nM
COc1ccc(C=CC(=O)Nc2ccc(N3CCCC3)cc2)cc1 | 1280 nM
Oc1ccc(CCNc2nc(NCc3ccccc3-c3ccc(C(F)(F)F)cc3)nc(N3CCNCC3)n2)cc1 | 866 nM
CCc1n[nH]c(C(=O)Nc2cccc(N3CCCC3)c2)c1C | 1460 nM
CCN(CC)C(=O)C1CCCN(C(=O)Nc2cc(C(F)(F)F)cc(C(F)(F)F)c2)C1 (stereo unspecified) | 996 nM
O=C(Nc1ccc(N2CCCN(Cc3cccc(F)c3)CC2)cc1)c1ccc(F)cc1 | 837 nM
COCCN1CCC(N(Cc2ccc(-c3ccc(C(F)(F)F)cc3)cc2)C(=O)Cn2c(CCc3cccc(F)c3F)cc(=O)c3c2CCC3)CC1 | 1320 nM
CC(=O)OCCN1C(=O)c2ccc3c4c(ccc(c24)C1=O)C(=O)N(CCOC(C)=O)C3=O | 238 nM
CN1C(C)(C)CC(NC(=O)c2ccc(-c3nc4cc(Cl)c(Cl)cc4[nH]3)cc2)CC1(C)C | 730 nM
COc1ccc(CNCc2ccccc2)cc1-c1ccc(S(=O)(=O)NCCN2CCCC2)cc1 | 824 nM
O=C(Nc1cccc(CN2CCCN(Cc3ccc(O)cc3)CC2)c1)c1ccc2ccccc2n1 | 938 nM
O=C(Nc1cccc(-c2ccc(-c3nc4cc(F)ccc4[nH]3)s2)c1)c1ccncc1 | 703 nM
O=C(/C=C/c1ccc(Cl)c(Cl)c1)NC1CCN(CCCNC(=O)c2cccc(Cl)c2)CC1 | 659 nM
CN1CCN(c2cc3c(cc2Cl)CCN3C(=O)Cc2ccc(Cl)c(NC(=O)Nc3cccc([N+](=O)[O-])c3)c2)CC1 | 718 nM
COc1cc(Cc2cnc(N)nc2N)cc(OCCCc2cc(OCc3ccccc3)no2)c1OC | 1870 nM
O=C(NC1CCN(CCCOc2ccnc3cc(Cl)ccc23)C1)c1ccc(Br)cc1 (stereo unspecified) | 1020 nM
CC(=O)Oc1c(Br)c(C)nc(C)c1-c1ccc(Oc2ccc(OC(F)(F)F)cc2)cc1 | 131 nM
C=C[C@H]1CN(CCCCCCC)CC[C@H]1CC(=O)Nc1cnnc2ccc(OC)cc12 | 529 nM
O=C(Nc1ccc(Cn2ncc(N3CCCNCC3)c(Cl)c2=O)cc1)Nc1ccc(F)cc1[N+](=O)[O-] | 1100 nM
CCc1c(C(=O)NC2CCC(N3CCC(c4ccccc4OC)CC3)CC2)[nH]c2ccc(Br)cc12 (stereo unspecified) | 1120 nM
Cc1ccoc1C(=O)Nc1cccc(-c2cccc(-c3nc4ccccc4[nH]3)c2)c1 | 1220 nM
CN(CCCCCNC(=O)/C=C/c1ccc(Cl)c(Cl)c1)CCc1c[nH]c2ccccc12 | 874 nM
COc1ccc(CCN(C)CCOc2ccc(NC(=O)c3cccc4cc5ccccc5nc34)cc2)cc1OC | 680 nM

Compound | XC50
O=C(O)C[C@H](NC(=O)CCCNC(=O)c1cccc(-c2ccc(Cl)c(Cl)c2)c1)C(=O)O | 881 nM
O=S(=O)(NCCN1CCCC1)c1ccc(-c2ccc(CNC3Cc4ccccc4C3)cc2)cc1F | 999 nM
Cc1cccc2nc(-c3ccc(-c4ccc(CNCC(C)C)cc4)cc3)[nH]c12 | 405 nM
CCOc1c(CNCCCNc2cc(O)c3ccccc3n2)cc(I)cc1OC | 1170 nM
CN1CC=C(c2c[nH]c3ccc(Sc4ccccc4)cc23)CC1 | 356 nM
COc1cccc(CN2CCCC(COC(c3ccc(F)cc3)c3ccc(F)cc3)C2)c1O (stereo unspecified) | 330 nM
CN1CCN(Cc2ccc(-c3ccc4c(Nc5cc(O)c(Cl)cc5F)ccnc4c3)o2)CC1 | 110 nM
NC1CCN(Cc2ccc(-c3cccc(-c4nc5cc(F)ccc5[nH]4)c3)cc2)C1 (stereo unspecified) | 759 nM
O=C(Nc1ccccc1)Nc1cccc(-c2cc(CNCCc3ccccc3)sc2-c2ccncc2)c1 | 598 nM
COc1ccc2nccc(NC(=O)N3CCC(NCCOc4cc(F)cc(F)c4)CC3)c2n1 | 770 nM
O=C(c1ccco1)N1CCN(c2ccc([N+](=O)[O-])c(NC3CC3)c2)CC1 | 747 nM
CN(C)CCN(Cc1ccccc1-c1ccc(CNCCc2ccccc2)cc1)C(=O)NC1CCCCC1 | 906 nM
Cc1cccc2nc(-c3cccc(-c4ccc(NC(=O)c5ccoc5)cc4)c3)[nH]c12 | 703 nM
Cc1cccc2nc(-c3cccc(-c4ccc(NC(=O)C(C)(C)c5ccccn5)cc4)c3)[nH]c12 | 685 nM
CC(C)c1ccc(CN2CCC(CNC(=O)c3cc(-c4ccc(N(C)C)cc4)cs3)C2)cc1 (stereo unspecified) | 1250 nM
COc1ccc(CNC2CCN(C)CC2)cc1-c1ccc(S(=O)(=O)NCc2ccccc2)s1 | 230 nM
CCCCCCCCc1nc(C)c(Br)c(O)c1Br | 178 nM
CCN(CC1CCN(CC2(O)CCOCC2)CC1)c1cc(C)nc(Nc2ccc(Cl)cc2)n1 | 406 nM
COc1ccc(F)cc1-c1ccc(C(=O)N2CCCN(c3ccc(C(F)(F)F)cn3)CC2)cc1 | 157 nM
CCOc1ccc2nc(N(CCCn3ccnc3)C(=O)C=Cc3cccs3)sc2c1 | 777 nM
Cn1ncc2c3c(CCN4CCC(NCc5cc6c(cn5)OCC6)CC4)c(Cl)cnc3ccc21 | 881 nM
CC[C@H](N/C(=N\c1ccc(-c2ccccc2)cc1)Nc1ccc(C#N)cc1O)c1ccccc1 | 759 nM
Cc1nnsc1C(=O)Nc1cccc(-c2csc(-c3nc4ccccc4[nH]3)c2)c1 | 351 nM
CC1(C)NC(N)=NC(=N)N1OCCNCc1ccc(Cl)cc1 | 160 nM

Compound | XC50
COc1cccc2c1CCN(CCN1CCC(NC(=O)c3ccc(-c4cccc(Cl)c4Cl)cc3)CC1)C2 | 699 nM
CCCCCCCc1c(C)nc2ccccc2c1O | 206 nM
CC1(C)S(=O)(=O)CC(O)CS1(=O)=O | 467 nM
Fc1ccc2[nH]cc(CCN3CCC(CNCc4ccccc4)CC3)c2c1 | 33 nM
COc1cccc(-c2ccc3c(-c4cccc(NC(C)=O)c4)cnc(N)c3c2)c1 | 106 nM
OCC1CCN(Cc2cccc(-c3cccc(-c4nc5cc(C(F)(F)F)ccc5[nH]4)c3)c2)CC1 | 506 nM
Oc1cccc(CCNCCCCCCNCCc2ccc(Cl)cc2)c1 | 774 nM
NCC1CCCN1Cc1ccc(-c2cccc(-c3nc4cc(F)ccc4[nH]3)c2)cc1 (stereo unspecified) | 751 nM
CCOc1ccc(C(Cc2ccccc2)NC(=O)c2cccnc2)cc1OCC (stereo unspecified) | 769 nM
Clc1cc2c(Nc3ccc(Oc4ccccc4)cc3)ccnc2cc1-c1ccc(CNCCN2CCOCC2)o1 | 707 nM
COc1ccc2nccc(N3CCC(SCCNS(=O)(=O)c4ccc5c(c4)NC(=O)CS5)C3)c2n1 (stereo unspecified) | 1580 nM
N#Cc1ccc2c(c1)CCN(CCC1CCC(NC(=O)/C=C/c3cccc4cc[nH]c34)CC1)CC2 (stereo unspecified) | 1090 nM
c1cc(-c2ccc(CNCCCN3CCOCC3)cc2)cc(-c2nc3ccccc3[nH]2)c1 | 207 nM
N#Cc1cc([N+](=O)[O-])ccc1-n1nc(-c2cccc(Cl)c2)n(CC2CCCO2)c1=S (stereo unspecified) | 914 nM
COc1ccc(Nc2nccc(NCCNC(=O)Nc3ccccc3F)n2)cc1 | 1320 nM
Cc1cc(-c2cccc(CNCc3ccc(F)cc3)c2)ccc1S(=O)(=O)NCCN1CCCC1 | 732 nM
CO/C(=C\C=C\c1cc2cc(Cl)c(Cl)cc2[nH]1)C(=O)NCCCN1CCCC[C@@H]1C | 755 nM
CCOc1c(Br)cc(C)cc1CNCCCNc1nc2ccccc2[nH]1 | 666 nM
COc1cc2c(C3CCN(CC4CCN(C(=O)/C=C/c5ccc(Cl)c(Cl)c5)CC4)CC3)c[nH]c2cn1 | 730 nM
CN1CCN(c2ccc(-c3cccc(NC(=O)c4ccc5ccccc5c4)c3)nn2)CC1 | 383 nM
O=C(/C=C/c1ccccc1Cl)Nc1ccc(Br)c(OCCN2CCN(CCN3CCCC3)CC2)c1 | 653 nM
COc1ccc(Cc2cccc(C(C(=O)NCc3cc(Cl)cc(Cl)c3)N3CCN(C)CC3)c2)cc1 (stereo unspecified) | 694 nM
O=C(Nc1ccc(Cn2ncc(N3CCCNCC3)c(Cl)c2=O)cc1)Nc1cc(C(F)(F)F)cc(C(F)(F)F)c1 | 588 nM
O=C(NCCCCCN1CCC(c2c[nH]c3ccccc23)CC1)c1ccc(Cl)c(Cl)c1 | 1360 nM
